Data set [1] relates to HeLa cells. Kind of data set: Transfection of pH2B-mCherry plasmid, microscopy with CellProfiler readout. The class given is cell-based. On the procedure: (§1) The development of vector 1 is illustrated in Table 1. In order to assess structure–activity relationships (SAR), we analyzed the minimal concentration needed to achieve transfection in steps of 100 μM, the toxicological profile and the transfection efficiency. To get swift access to toxicity data for SAR analysis, the compounds listed in Table 1 were evaluated in an MTS‐based cell‐viability assay, and transfection efficiencies were analyzed by CellProfiler® on HeLa cells (see the Supporting Information for details).[18] […] Amide formation on the N terminus reduced the net charge by 1, and acetylation at this position led to an increased concentration needed for successful transfection (Table 1, Entry B). Finally, the descent in transfection efficiency to 5.9 % highlights the relevance of a fifth positive charge.[19] Apparently, this reduction of positive charges impedes DNA condensation and must be compensated for.
4.2 Transfection and Microscopy
Cells were seeded in a 96-well plate from (Greiner bio-one) 24 h prior to experiments at a confluence of 1x104 in 100 µL of culture growth medium and grown at 37.0 °C, 5% CO2 atmosphere and 95% relative humidity. The vector was dissolved in DMSO. 0.100 µg of DNA were diluted with DB-PBS and an appropriate amount of vector solution added resulting in a total volume of 30 µL. This solution was incubated for 20 min at rt. Afterwards 30.0 µL of culture growth medium was replaced by vector/DNA mixture. All precipitate which had formed during the incubation process was added to the well. After 5 h of incubation the cells were washed with warm DB-PBS buffer (2x100 µL per well) before incubating the cells for 24h at 37.0 °C, 5% CO2 atmosphere and 95% relative humidity. After 24 h the cells were examined under the microscope.
Figure S4. Representative microscopy images of HEK293t, HeLa, CHO, A549 and HCT116 cells 24 h after transfection with 1 (150 µM) with pH2B-mCherry.
Scale bar represents 200 µm. […]
4.3 Quantification of Transfection Results
For quantification of transfection efficiencies, cells were transfected with the pH2B-mCherry plasmid using the different compounds at the described concentrations and stained with DAPI. […] The transfection efficiency was calculated using CellProfiler™.[7] […] Next, the fluorescence intensity in the red channel (Ex = 555 nm; Em > 590 nm) was measured within the segmented nuclei and a threshold was applied.
The ratio between pH2B-mCherry positive nuclei and all nuclei (segmented by DAPI) was determined as transfection efficiency. […]
Figure S7. […] The pipeline recognizes Hoechst-stained nuclei and measures the intensity of the fluorescent reporter protein within the previously calculated nuclei boundaries. […]

Data set [2] relates to HeLa cells. As to the kind of experiment: MTS-based cell-viability assay (CellTiter 96 AQueous One Solution Cell Proliferation Assay). The conditions noted are these: 5 h incubation with plasmid DNA 1 µg/ml. The method, then: as §1
4. Biological experiments
Determination of the toxicity of the compounds was performed using the colorimetric CellTiter 96® AQueous One Solution Cell Proliferation Assay (Promega). […] Absorbance at 490 nm was measured using a GloMax-multi plate reader (Promega). […]

The values that follow come from publication PMC9401007, “Advances towards Cell‐Specific Gene Transfection: A Small‐Molecule Approach Allows Order‐of‐Magnitude Selectivity” (Chemistry (Weinheim an Der Bergstrasse, Germany), 2022).

tetralysine-guanidinocarbonylpyrrol: the “Conc.: minimal concentration needed to observe successful transfection during microscopy” value in the data set on HeLa cells [1] (analysed in steps of 100 μM, pH2B-mCherry plasmid, 5 h incubation, examined after 24 h) is 150 µM. In addition, the “Efficiency: transfection efficiency by CellProfiler readout” value with HeLa cells [1] (at the (minimal) concentration printed in column Conc., fraction of pH2B-mCherry positive nuclei) is 3.2%. Moreover, the “Efficiency: transfection efficiency by CellProfiler readout at the optimal concentration” value with HeLa cells [1] (at the concentration marked (opt.): A 300 μM, 1 150 μM) amounted to 48%. For the same substance, in the data set with HeLa cells [1] (pH2B-mCherry plasmid), the “Conc. (opt.): concentration of maximum transfection efficiency” value stood at 300 µM. Also, in the data set with HeLa cells [2] (concentration range optimal for transfection (for entry A: at the minimal concentration 150 μM), absorbance 490 nm, normalised to DMSO control), the “Toxicity (qualitative, MTS assay)” value was “low (Low=cell viability ≥70 %)”. Besides, in the data set on HeLa cells [2] (entry A at 300 μM (opt.)), the “Toxicity (qualitative, MTS assay) at the optimal concentration” value is “high (high=cell viability <70 %)”.
